{"source": "paper PMC12696090", "about": "“Enzyme engineering of cytochrome P450 RosC provides mechanistic insights into factors controlling iterative oxidation” (Applied Microbiology and Biotechnology, 2025)", "key": {"NHis-RosC [1]": {"molecular_target": "T1, NHis-RosC (Micromonospora rosaria, UniProt I7HHD0, P107S/L176Q)", "T1 construct": "full-length, N-terminal His-tag kept (pET28b), expressed in E. coli BL21(DE3)", "assay": "spectral substrate-binding assay (difference spectra)", "details": "50 mM Tris-HCl pH 7.5, 20% glycerol, room temperature, 1 μM enzyme; Type II spectral change"}, "NHis-RosC [2]": {"molecular_target": "T2, NHis-RosC (Micromonospora rosaria, UniProt I7HHD0)", "T2 construct": "full-length, N-terminal His-tag kept (pET28b), expressed in E. coli BL21(DE3)", "assay": "spectral substrate-binding assay (difference spectra)", "details": "50 mM Tris-HCl pH 7.5, 20% glycerol, room temperature, 1 μM enzyme; Type II spectral change"}, "[3]": {"molecular_target": "T3, RosC lacking the N-terminal 21 residues (Micromonospora rosaria, UniProt I7HHD0)", "T3 construct": "N-terminal 21 residues deleted, His-tag cut with thrombin, expressed in E. coli BL21(DE3); crystallization construct", "assay": "X-ray crystal structure", "type": "binding", "details": "2.3 Å; active site, C-20 oriented toward heme iron"}}}
{"smiles": "CC[C@H]1C[C@@H](C)C(=O)/C=C/[C@]2(C)O[C@H]2[C@H](C)[C@@H](CC)OC(=O)C[C@@H](O)[C@H](C)[C@H]1O[C@@H]1O[C@H](C)C[C@H](N(C)C)[C@H]1O", "note": "[RS-B]", "values": [{"measurement": "Kd", "setting": "NHis-RosC [1]", "value": "1000 ± 200", "unit": "nM"}, {"measurement": "Kd", "setting": "NHis-RosC [2]", "value": "1400 ± 300", "unit": "nM"}, {"measurement": "X-ray crystal structure", "setting": "[3]", "value": "The crystal structure of RosC bound to RS-B"}]}
{"smiles": "CC[C@H]1OC(=O)C[C@@H](O)[C@H](C)[C@@H](O[C@@H]2O[C@H](C)C[C@H](N(C)C)[C@H]2O)[C@@H](CCO)C[C@@H](C)C(=O)/C=C/[C@]2(C)O[C@H]2[C@@H]1C", "note": "[RS-A]", "values": [{"measurement": "X-ray crystal structure", "setting": "[3]", "value": "crystal structures of the RosC in complex with RS-A and RS"}]}
{"smiles": "CC[C@H]1OC(=O)C[C@@H](O)[C@H](C)[C@@H](O[C@@H]2O[C@H](C)C[C@H](N(C)C)[C@H]2O)[C@@H](CC=O)C[C@@H](C)C(=O)/C=C/[C@]2(C)O[C@H]2[C@@H]1C", "note": "[RS]", "values": [{"measurement": "X-ray crystal structure", "setting": "[3]", "value": "crystal structures of the RosC in complex with RS-A and RS"}]}
